The source made the active and inactive calls.
Legend:
[1] = reduced cellular PGC1a acetyl-lysine signal – cell-based, cherry-picked samples, dose response (AID 720514); assay type: functional;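 further: potency may reflect raised or lowered acetylation signal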
[2] = viability loss in THP-1 monocytes – THP-1 cells, cytotoxicity control for Vif-APOBEC3G degradation inhibitor project, dose response (AID 1117359); assay type: functional; settings: THP-1
[3] = target: Heat shock protein HSP 90-alpha (Homo sapiens, UniProt P07900); experiment: Luminescence-based dose response biochemical high throughput screening assay for inhibitors of the Heat Shock Protein 90 (HSP90). [Related pubchem assays: 1831 (Summary AID.), 1846 (Confirmation screen.), 1789 (Primary screen.)]
[4] = luciferase reporter signal suppression in cells – H4 neuroglioma cells, luminescence, dose response (AID 1990); assay type: functional, cell-based
[5] = Luminescence Cell-Based Dose Response HTS to Identify Inhibitors of 5'UTR Stem-Loop Driven Prion Protein mRNA Translation in H4 Neuroglioblastoma Cells. [Related pubchem assays: 1827 (Project Summary), 1813 (Primary HTS)]; assay type: functional
[6] = alpha-synuclein stem-loop luciferase translation blockers – H4 neuroglioma cells, luminescence, confirmation (AID 1988); assay type: functional, cell-based
[7] = HEK-293T cell viability reduction – luminescence, B-cell screen hits, cytotoxicity control for BCR NF-kB inhibitor project, dose response (AID 489021); assay type: functional, cell-based;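 further: HEK-293T cells carrying an NF-kB luciferase reporter; cells exposed to compound for about 14 hours before viability readout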
[8] = viability of HCT116 lacking mutant beta-catenin – cell-based, human colon tumor, dose response (AID 1045); assay type: functional;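 further: HCT116 colon tumor cells with beta catenin knocked out; cells exposed to compound for 60 hours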
[9] = viability of PTEN-deleted HCT116 cells – cell-based, HCT116 PTEN knockout, dose response (AID 1047); assay type: functional;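 further: HCT116 colon tumor cells with PTEN knocked out; cells exposed to compound for 60 hours before readout; potency for loss of cell viability measured by luminescence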
[10] = DRD fibroblast viability loss – cell-based, non-viral oncogenic, luminescence, dose response (AID 1934); assay type: functional; settings: Homo sapiens
BJ [11] = experiment: BJ-TERT-LT-ST fibroblast viability loss – cell-based, RAS-independent, luminescence, dose response (AID 1935); assay type: functional; settings: Homo sapiens;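 further: BJ fibroblasts immortalized with TERT plus LT and ST oncogenes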
BJ [12] = experiment: BJ-TERT fibroblast viability loss – cell-based, RAS-independent, luminescence, dose response (AID 1933); assay type: functional; settings: Homo sapiens
BJ [13] = experiment: cells; assay type: functional, cell-based; settings: Homo sapiens
Caspase-6 = target: T1, Caspase-6 (Homo sapiens, UniProt P55212); experiment: inhibition of CASP6 peptide cleavage – biochemical, VEID-R110 fluorescence, cherry-pick, dose response (AID 720632)
T1 sequence (P55212 whole entry): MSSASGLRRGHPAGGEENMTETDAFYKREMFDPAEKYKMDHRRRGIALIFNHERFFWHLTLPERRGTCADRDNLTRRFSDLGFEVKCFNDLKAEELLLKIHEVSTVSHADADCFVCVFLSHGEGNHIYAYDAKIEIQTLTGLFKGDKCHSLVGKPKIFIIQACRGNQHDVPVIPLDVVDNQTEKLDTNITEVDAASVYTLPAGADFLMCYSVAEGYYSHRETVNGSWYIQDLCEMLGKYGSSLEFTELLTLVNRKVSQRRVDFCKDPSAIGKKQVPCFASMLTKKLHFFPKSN

[14] = target: T2, Corticotropin-releasing factor receptor 2/Corticotropin-releasing factor-binding protein (Homo sapiens, UniProt P24387+Q13324); experiment: activators of CRF receptor 2 with binding protein – uHTS hits, confirmation (AID 602473); assay type: functional; settings: read-out: EC50_Mean
T2 sequence (Q13324 whole entry): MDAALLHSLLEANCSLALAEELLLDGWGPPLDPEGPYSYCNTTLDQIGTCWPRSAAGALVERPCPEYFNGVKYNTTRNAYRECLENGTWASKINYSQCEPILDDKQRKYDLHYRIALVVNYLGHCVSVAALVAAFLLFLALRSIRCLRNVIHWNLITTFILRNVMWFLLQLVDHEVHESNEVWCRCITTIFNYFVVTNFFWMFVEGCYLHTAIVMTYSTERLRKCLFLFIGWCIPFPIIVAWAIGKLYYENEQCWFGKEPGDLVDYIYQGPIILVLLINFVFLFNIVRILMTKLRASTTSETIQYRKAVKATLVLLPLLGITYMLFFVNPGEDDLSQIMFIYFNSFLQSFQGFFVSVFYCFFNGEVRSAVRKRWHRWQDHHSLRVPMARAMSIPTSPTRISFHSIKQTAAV
T2 sequence (P24387 whole entry): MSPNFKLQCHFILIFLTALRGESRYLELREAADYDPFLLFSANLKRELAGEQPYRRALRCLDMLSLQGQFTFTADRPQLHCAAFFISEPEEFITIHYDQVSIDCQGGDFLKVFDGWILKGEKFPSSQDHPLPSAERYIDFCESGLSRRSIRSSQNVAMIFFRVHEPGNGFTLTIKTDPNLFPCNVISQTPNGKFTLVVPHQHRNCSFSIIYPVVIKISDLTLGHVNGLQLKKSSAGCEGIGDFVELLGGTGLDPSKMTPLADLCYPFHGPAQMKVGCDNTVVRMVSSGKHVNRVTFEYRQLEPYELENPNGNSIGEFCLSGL

[15] = HIV-1 Vif–A3G interaction blockers – biochemical, TR-FRET, GST-Vif 1-94, biotin-A3G peptide, dose response retest, primary screen (AID 1117319); assay type: functional;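 further: TR-FRET signal of purified GST-Vif binding a biotinylated A3G peptide; inhibitors lower the FRET signal by blocking Vif and A3G binding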
[16] = NIH-3T3 fibroblast cytotoxicity, dose response, cytotoxicity control, cell-based, fluorescence, Alamar Blue, secondary assay (AID 2327); assay type: functional;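 further: NIH-3T3 mouse fibroblasts cultured with fluconazole at 8 µg/mL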
[17] = target: ATP-dependent molecular chaperone HSP82 (Candida albicans (strain WO-1) (Yeast), UniProt C4YTQ8); experiment: steroid-induced GRE reporter decrease in yeast – S. cerevisiae, luminescence, Hsp90 inhibitor project, dose response (AID 2400); assay type: functional, cell-based;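 further: beta-galactosidase luminescence from glucocorticoid response element reporter as proxy for Hsp90 function; inhibitor potency where signal loss means Hsp90 inhibition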
Sequence of ATP-dependent molecular chaperone HSP82 (C4YTQ8 whole entry): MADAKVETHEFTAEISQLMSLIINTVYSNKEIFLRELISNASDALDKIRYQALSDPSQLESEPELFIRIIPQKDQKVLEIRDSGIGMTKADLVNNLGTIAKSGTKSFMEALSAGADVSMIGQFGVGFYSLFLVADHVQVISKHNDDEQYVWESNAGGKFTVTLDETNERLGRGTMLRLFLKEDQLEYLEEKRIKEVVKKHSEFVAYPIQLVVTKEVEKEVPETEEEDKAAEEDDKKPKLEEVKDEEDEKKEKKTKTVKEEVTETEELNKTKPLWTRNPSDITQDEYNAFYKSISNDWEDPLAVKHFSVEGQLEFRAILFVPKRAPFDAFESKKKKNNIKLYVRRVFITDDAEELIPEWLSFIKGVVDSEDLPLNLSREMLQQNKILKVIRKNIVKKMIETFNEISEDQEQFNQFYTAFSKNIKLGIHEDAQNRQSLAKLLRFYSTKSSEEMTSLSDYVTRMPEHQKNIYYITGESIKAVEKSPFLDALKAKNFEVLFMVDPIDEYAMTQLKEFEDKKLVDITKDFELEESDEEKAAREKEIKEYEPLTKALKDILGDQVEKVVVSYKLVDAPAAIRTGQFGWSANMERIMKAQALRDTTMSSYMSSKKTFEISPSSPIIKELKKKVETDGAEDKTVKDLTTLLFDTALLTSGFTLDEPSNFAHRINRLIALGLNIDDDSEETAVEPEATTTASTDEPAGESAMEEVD

[18] = target: T3, Serine/threonine-protein phosphatase (Candida dubliniensis (strain CD36 / CBS 7987 / NCPF 3949 / NRRLY-17841) (Yeast), UniProt B9W6M3); experiment: blockers of CaCl2-induced CDRE-lacZ signaling – S. cerevisiae, luminescence, secondary, dose response (AID 2388); assay type: functional, cell-based;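 further: yeast reporter cells carrying a calcineurin-responsive lacZ construct stimulated with calcium chloride; luminescent beta-galactosidase reporter signal in whole cells rather than isolated phosphatase activity; potency for inhibition where a drop in reporter signal means calcineurin blockade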
T3 sequence (B9W6M3 whole entry): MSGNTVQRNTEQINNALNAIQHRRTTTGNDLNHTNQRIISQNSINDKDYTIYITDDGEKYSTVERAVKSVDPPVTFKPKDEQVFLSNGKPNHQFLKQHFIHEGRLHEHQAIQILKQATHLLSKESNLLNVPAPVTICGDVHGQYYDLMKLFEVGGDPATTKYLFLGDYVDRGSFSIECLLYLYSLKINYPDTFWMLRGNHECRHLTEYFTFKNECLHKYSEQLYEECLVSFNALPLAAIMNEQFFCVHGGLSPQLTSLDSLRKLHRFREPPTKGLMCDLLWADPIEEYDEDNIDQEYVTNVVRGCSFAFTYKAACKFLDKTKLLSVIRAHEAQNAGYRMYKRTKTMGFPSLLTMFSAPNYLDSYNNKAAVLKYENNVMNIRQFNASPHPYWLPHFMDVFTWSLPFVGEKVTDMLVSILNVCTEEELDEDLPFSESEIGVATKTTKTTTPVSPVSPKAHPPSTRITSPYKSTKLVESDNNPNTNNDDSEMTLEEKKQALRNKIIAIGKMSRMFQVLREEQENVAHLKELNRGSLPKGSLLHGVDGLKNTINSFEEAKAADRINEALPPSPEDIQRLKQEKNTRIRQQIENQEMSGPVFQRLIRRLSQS

[19] = fluconazole-exposed Candida albicans growth modulators – fluorescence, retest, confirmation (AID 2467); assay type: functional, cell-based
[20] = viability loss in human Jurkat cells – cell-based, luminescence, cytotoxicity control for P. falciparum gametocyte viability project, dose response (AID 1117277); assay type: functional;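 further: potency reflects loss of cellular ATP meaning fewer viable cells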
[21] = viability inhibitors of stage V gametocytes – luminescence, dose response (AID 1117278); assay type: functional, cell-based;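 further: gametocytes exposed to compound for 24 hours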
HeLa = experiment: ATP-based viability loss in HeLa cells – cell-based, CellTiter-Glo luminescence, cherry-pick samples, cytotoxicity control for MITF activator project, dose response (AID 540259); assay type: functional; settings: Homo sapiens

## Cc1nc(Nc2ccc(S(N)(=O)=O)cc2)sc1C(=O)Nc1ccccc1
[1]
  AC50: 3.05 µM (active)
[2]
  CC50: > 40 µM (active)

## CC1=NN(c2ccccc2)C(=O)/C1=C\N(O)c1ccccc1
[3]
  IC50: 2.78 µM (active)

## Cc1c(CCC(=O)NCCCn2ccnc2)c(=O)oc2c(C)c3oc4c(c3cc12)CCCC4
[4]
  EC50: 13.7 µM (active)
[5]
  EC50: 17.8 µM (active)
[6]
  EC50: 14.6 µM (active)
[7]
  IC50: 63.6 µM (inactive)

## Clc1cccc(-c2cc3nc4c(c(N5CCNCC5)n3n2)CCCC4)c1
[8]
  EC50: 7.97 µM (active)
[9]
  EC50: 8.22 µM (active)

## Cc1cc2c(C)cc(O)nc2cc1NC(=O)CCl
[10]
  EC50: 42.2 µM (active)
BJ [11]
  EC50: > 150 µM (not active)
BJ [12]
  EC50: 17.7 µM (active)
BJ [13]
  EC50: > 150 µM (not active)

## CNS(=O)(=O)c1cccc(C(=O)OCC(=O)N2c3ccccc3NC(=O)C2(C)C)c1
Caspase-6
  AC50: 3 µM (active)

## CCC(C)c1ccc(OCc2ccc(C(=O)OC)o2)cc1 (centres undefined)
[3]
  IC50: 2.29 µM (active)

## C[C@H]1CC[C@@H]2[C@@H](C)[C@H]3[C@H](C[C@H]4[C@@H]5CC=C6C[C@@H](O[C@@H]7O[C@H](CO)[C@H](O)[C@H](O[C@@H]8O[C@H](CO)[C@@H](O)[C@H](O)[C@H]8O)[C@H]7O[C@@H]7O[C@@H](C)[C@H](O)[C@@H](O)[C@H]7O)CC[C@]6(C)[C@H]5CC[C@]34C)N2C1
[4]
  EC50: 13.5 µM (active)
[14]
  EC50: 9.48 µM (active)
[5]
  EC50: > 120 µM (not active)
[8]
  EC50: 22.1 µM (active)
[6]
  EC50: > 120 µM (not active)
[9]
  EC50: 25.2 µM (active)

## CN(CCc1ccccc1)C(=O)c1ccc(NC(=O)Cc2ccc(NC(=O)C3CCN(C(=O)CCc4ccccc4)CC3)cc2)cc1
[2]
  CC50: > 40 µM (active)

## Cc1ccc(S(=O)(=O)N(CC(=O)N/N=C/c2cccc3c2OCCO3)c2ccccc2F)cc1
[15]
  IC50: > 100 µM (active)

## CCCCC(=O)NC(=S)Nc1cccc(NC(=O)c2ccco2)c1
[16]
  EC50: > 150 µM (inconclusive)
[17]
  EC50: > 160 µM (inactive)
[18]
  EC50: > 180 µM (inactive)
[19]
  EC50: 4.79 µM (active)

## Cc1cc(C)n(-c2ccc(C(=O)NCc3cccs3)cc2)n1
[20]
  IC50: > 83.3 µM (inactive)
[21]
  IC50: > 109 µM (inactive)

## Cc1cccc(C)c1NC1=NC(=S)N(c2ccc(C(=O)O)cc2)C12CCCCC2
[20]
  IC50: > 83.3 µM (inactive)
[21]
  IC50: > 109 µM (inactive)

## O=S(=O)(Nc1ccncc1)c1ccccc1
[20]
  IC50: > 83.3 µM (inactive)
[21]
  IC50: > 109 µM (inactive)

## c1ccc(-c2cnnc(N3CCCCC3)n2)cc1
HeLa
  AC50: 191 µM (active)
